In assay [1] the test system is Cladosporium cladosporioides. The assay is described as follows: Antifungal activity against Cladosporium cladosporioides assessed as minimum concentration required to inhibit growth after 72 hrs by TLC. Type of assay: functional.
For assay [2], the system named is Cladosporium sphaerospermum. The assay is described as follows: Antifungal activity against Cladosporium sphaerospermum assessed as minimum concentration required to inhibit growth after 72 hrs by TLC. In kind it is functional.
For assay [3], the system named is Cladosporium sphaerospermum. The assay can be described thus: Antifungal activity against Cladosporium sphaerospermum at 100 ug after 72 hrs by TLC. Type of assay: functional, organism-based.
Assay [4] concerns Cladosporium cladosporioides. The assay is described as follows: Antifungal activity against Cladosporium cladosporioides at 100 ug after 72 hrs by TLC. In kind it is functional, organism-based.

The source made the active and inactive calls. No cut-off for these calls is given here.

Regarding `COC(=O)c1cc(C(=O)C=C(C)C)ccc1OC` [ADUNCUMENE], the Activity in assay [1] and in assay [2] was 5 µg throughout.
On to `C=C(C)C(O)Cc1cc(C(=O)OC)ccc1O` (configuration not stated), for which the Activity in assay [1] and in assay [2] was 5 µg throughout.
`COc1cc(O)c2c(c1)O[C@H](c1ccc(O)cc1)CC2=O` [SAKURANETIN]: the Activity in assay [1] and in assay [2] was 1 µg throughout.
With `COc1cc(CCC(=O)O)cc(OC)c1OC`, the Activity in assay [1] and in assay [2] was 10 µg throughout.
For `COC(=O)c1ccc(O)c(CC(O)C(C)(C)O)c1` (configuration not stated) [HOSTMANIANE], the Activity in assay [1] and in assay [2] was 0.5 µg in each case.
Consider `CC(C)=CCC/C(C)=C/C(=O)c1cc(O)ccc1O`, for which the Activity in assay [1] and in assay [2] was 1 µg each time.
Regarding `CC(C)=CCC[C@@]1(C)C=Cc2cc(C(=O)O)cc(CC=C(C)C)c2O1`, the Activity in assay [1] and in assay [2] was 10 µg each time.
With `COc1cc(O)c(C(=O)CCc2ccccc2)c(O)c1`, the outcome in assay [3] and in assay [4] was inactive.
On to `COC(=O)c1cc2c(c(CC=C(C)C)c1)OC(C)(C)C=C2`, for which the Activity in assay [1] and in assay [2] was 0.1 µg throughout.
In the case of `O=C1C[C@@H](c2ccccc2)Oc2cc(O)cc(O)c21` [PINOCEMBRIN], the Activity in assay [1] and in assay [2] was 1 µg each time.
With `COC(=O)c1ccc(O)c(C(=O)C=C(C)C)c1`, the outcome in assay [3] and in assay [4] was inactive.
For the compound NYSTATIN, the Activity in assay [1] and in assay [2] was 1 µg each time.
On to `COC(=O)c1ccc(O)c(CC=C(C)C)c1`, for which the Activity in assay [1] and in assay [2] was 1 µg each time.
As for `COc1ccc(C(=O)O)cc1C/C=C(\C)CCC=C(C)C`, the result in assay [3] and in assay [4] was inactive.
For the compound `COC(=O)c1ccc(O)c([C@@H]2c3c(OC)cc(O)c(C(=O)CCc4ccccc4)c3O[C@H]2C(C)(C)O)c1`, the result in assay [3] and in assay [4] was inactive.
Take `CC1(C)C=Cc2cc(C(=O)O)ccc2O1`: the Activity in assay [1] and in assay [2] was 5 µg throughout.
`CC(C)=CCCC(C)(O)CC(=O)c1cc(C(=O)O)ccc1O` (configuration not stated) [CRASSINERVIC ACID]: the Activity in assay [1] and in assay [2] was 0.5 µg in each case.
In the case of `CC(C)=CCC/C(C)=C/Cc1cc(C(=O)O)ccc1O`, the Activity in assay [1] and in assay [2] was 5 µg each time.
`COC(=O)c1ccc2c(c1)C=CC(C)(C)O2`: the Activity in assay [1] and in assay [2] was 5 µg each time.
`COC(=O)c1cc(O)c2c(c1)C=CC(C)(C)O2`: the Activity in assay [1] and in assay [2] was 5 µg in each case.
As for `Clc1ccc(COC(Cn2ccnc2)c2ccc(Cl)cc2Cl)c(Cl)c1` (configuration not stated) [MICONAZOLE], the Activity in assay [1] and in assay [2] was 1 µg each time.

Source of the values: ChEMBL document CHEMBL1148936, “Benzoic acid derivatives from Piper species and their fungitoxic activity against Cladosporium cladosporioides and C. sphaerospermum” (2004).
